This test addresses T1, human 11β-HSD1 (Homo sapiens, UniProt P28845).
T1 construct: truncated (24-287aa) human 11β-HSD1 enzyme; made in house; host or cells: E. coli (lysate, not purified)
The experiment in a line: Human 11β-HSD1 enzymatic SPA assay. The test is classed as biochemical. Particulars: truncated (24-287aa) human 11β-HSD1, apparent Ki from IC50 by Cheng-Prusoff. How it is done:
The ability of test compounds to inhibit human 11β-HSD1 enzymatic activity in vitro was evaluated in a Scintillation Proximity Assay (SPA). Tritiated-cortisone substrate, NADPH cofactor and titrated compound were incubated with truncated (24-287aa) human 11β-HSD1 enzyme at room temperature to allow the conversion to cortisol to occur. The reaction was stopped by adding a non-specific 11β-HSD inhibitor, glycyrrhetinic acid. The tritiated cortisol was captured by a mixture of an anti-cortisol monoclonal antibody and SPA beads coated with anti-mouse antibodies. The reaction plate was shaken at room temperature and the radiolabel bound to SPA beads was then measured on a scintillation counter. The 11β-HSD1 assay was carried out in 96-well microtiter plates in a total volume of […]. To start the assay, 188 μL of master mix which contained 75 nM ^3H-cortisone, 100 nM cortisone and 181 μM NADPH was added to the wells. In order to drive the reaction in the 11β-reductase direction, 1 mM glucose-6-phosphate (G-6-P) and 1 U/mL G-6-P dehydrogenase were also added as a NADPH generating system. Solid compound was dissolved in dimethyl sulfoxide to make a 10 mM stock followed by a subsequent 10-fold serial dilution with dimethyl sulfoxide. Each compound solution in dimethyl sulfoxide was 10-fold diluted in Tris/EDTA buffer (pH 7.4). 22 μL of titrated compound were then added in duplicate to the substrate. Reactions were initiated by the addition of 10 μL of 0.1 mg/mL E. coli lysates overexpressing 11β-HSD1 enzyme. After shaking and incubating plates for 30 minutes at room temperature, reactions were stopped by adding 10 μL of 1 mM glycyrrhetinic acid. The product, tritiated cortisol, was captured by adding 10 μL of 1 μM monoclonal mouse anti-cortisol antibodies and 50 μL of SPA beads coated with anti-mouse antibodies. After shaking for 30 minutes, plates were read in a Microbeta scintillation counter. Percent inhibition was calculated based on the background and the maximal signal. Wells that contained substrate without compound or enzyme were used as the background, while the wells that contained substrate and enzyme without any compound were considered as maximal signal. Percent of inhibition of each compound was calculated relative to the maximal signal and IC50 curves were generated. Assuming competitive inhibition the Cheng-Prusoff equation was used to calculate apparent Ki values from the IC50 values. This assay was applied to 11β-HSD2 as well, whereby 6 nM tritiated cortisol and 250 uM NAD^+ were used as substrate and cofactor, respectively.

T1 sequence (P28845 24-287): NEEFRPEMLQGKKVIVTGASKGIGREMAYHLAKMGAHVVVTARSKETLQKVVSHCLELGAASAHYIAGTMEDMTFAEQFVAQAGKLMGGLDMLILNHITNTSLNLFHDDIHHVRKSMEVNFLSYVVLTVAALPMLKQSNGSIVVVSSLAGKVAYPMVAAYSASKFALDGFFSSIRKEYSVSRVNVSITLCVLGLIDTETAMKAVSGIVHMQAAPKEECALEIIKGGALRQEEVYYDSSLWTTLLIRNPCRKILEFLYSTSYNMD

As for `CC(C)(Oc1ccc(F)cc1F)C(=NC#N)NC1C2CC3CC1CC(S(C)(=O)=O)(C3)C2` (stereo not shown) [Example 45, (1E)-N′-cyano-2-(2,4-difluorophenoxy)-2-methyl-N-[(E)-5-(methylsulfonyl)adamantan-2-yl]propanimidamide], the Ki was not above 10 nM.

Take `COC(=O)C12CC3CC(C1)C(NC(=S)C(C)(C)OCc1ccc(C(F)(F)F)cc1)C(C3)C2` (stereo not shown) [Example 16, Methyl(E)-4-[(2-methyl-2-{[4-(trifluoromethyl)benzyl]oxy}propanethioyl)amino]adamantane-1-carboxylate]: the Ki was 100 to 1000 nM.

For `[H]/N=C(/NC1C2CC3CC1CC(C(N)=O)(C3)C2)C(C)(C)Oc1ccccc1` (stereo not shown) [Example 76, (E)-4-[(2-methyl-2-phenoxypropanimidoyl)amino]adamantane-1-carboxamide], the Ki was more than 1000 nM.

On to `CC(C)(Oc1ccc(Cl)cc1)C(=NC#N)NC1C2CC3CC1CN(C3)C2` (stereo not shown) [Example 39, (1E)-N-[(4s)-1-Azatricyclo[3.3.1.1^3,7]dec-4-yl]-2-(4-chlorophenoxy)-N′-cyano-2-methylpropanimidamide], for which the Ki is more than 1000 nM.

As to `CC(C)(Oc1ccc(Cl)cc1)C(=NC#N)NC12CCC(C(N)=O)(CC1)C2` [Example 88, 4-{[2-(4-chlorophenoxy)-N-cyano-2-methylpropanimidoyl]amino}bicyclo[2.2.1]heptane-1-carboxamide], the Ki is 100 to 1000 nM.

Turning to `CC(C)(Oc1ccccc1F)/C(=N\C#N)NC1C2CC3CC1CC(C#N)(C3)C2` (stereo not shown) [Example 78, (1E)-N′-cyano-N-[(E)-5-cyanoadamantan-2-yl]-2-(2-fluorophenoxy)-2-methylpropanimidamide], the Ki was 10 to 100 nM.

Consider `CC(C)(OCc1ccc(C(F)(F)F)cc1)C(=NC#N)NC1C2CC3CC1CC(C#N)(C3)C2` (stereo not shown) [Example 27, (1E)-N-Cyano-N-[(E)-5-cyano-2-adamantyl]-2-methyl-2-{[4-(trifluoromethyl)benzyl]oxy}propanimidamide], for which the Ki is not above 10 nM.

Consider `CC(C)(Oc1ccc(Cl)cc1F)/C(=N\C#N)NC1CN2CCC1CC2` (stereo not shown) [Example 72, (1E)-N-(1-azabicyclo[2.2.2]oct-3-yl)-2-(4-chloro-2-fluorophenoxy)-N′-cyano-2-methylpropanimidamide], for which the Ki is more than 1000 nM.

Take `CC(C)(Oc1ccc(Cl)cc1)C(=NC#N)NC1C2CC3CC1CC(C(N)=O)(C3)C2` (stereo not shown) [Example 14, (E)-4-{[(1E)-2-(4-Chlorophenoxy)-N-cyano-2-methylpropanimidoyl]amino}adamantane-1-carboxamide]: the Ki is not above 10 nM.

Consider `CC(C)(Oc1ccccn1)/C(=N\C#N)NC1C2CC3CC1CC(S(C)(=O)=O)(C3)C2` (stereo not shown) [Example 77, (1E)-N′-cyano-2-methyl-N-[(E)-5-(methylsulfonyl)adamantan-2-yl]-2-(pyridin-2-yloxy)propanimidamide], for which the Ki lay within 100 to 1000 nM.

With `CC(C)(Oc1ccc(F)cc1Cl)C(=NC#N)NC1C2CC3CC1CC(O)(C3)C2` (stereo not shown) [Example 1, (1E)-2-(2-Chloro-4-fluorophenoxy)-Y-cyano-N-[(E)-5-hydroxy-2-adamantyl]-2-methylpropanimidamide], the Ki was 10 to 100 nM.

As for `CC(C)(Oc1ccc(Cl)cc1)C(=NC#N)NC12CCC(C(N)=O)(CC1)CC2` [Example 47, 4-{[2-(4-chlorophenoxy)-N-cyano-2-methylpropanimidoyl]amino}bicyclo[2.2.2]octane-1-carboxamide], the Ki fell in the range of 10 to 100 nM.

Take `CC(C)(Oc1ccc(Cl)cc1)C(=NC#N)NC12CCC(C(=O)O)(CC1)CC2` [Example 46, 4-{[2-(4-chlorophenoxy)-N-cyano-2-methylpropanimidoyl]amino}bicyclo[2.2.2]octane-1-carboxylic acid]: the Ki was more than 1000 nM.

`CC(C)(Oc1ccc(Cl)cn1)/C(=N\C#N)N[C@@H]1[C@@H]2C[C@@H]3C[C@H]1C[C@@](O)(C3)C2` [Example 58, (1E)-2-[(5-chloropyridin-2-yl)oxy]-N′-cyano-N-[(E)-5-hydroxyadamantan-2-yl]-2-methylpropanimidamide]: the Ki was 100 to 1000 nM.

Turning to `N#CN=C(NC1C2CC3CC1CC(O)(C3)C2)C1(Oc2cccc(Cl)c2)CCC1` (stereo not shown) [Example 15, 1-(3-Chlorophenoxy)-N′-cyano-N-[(E)-5-hydroxy-2-adamantyl]cyclobutane carboximidamide], the Ki was in the range of 100 to 1000 nM.

As to `CC(C)(Oc1ccc(F)cc1F)C(=NC#N)NC12CC3CC(CC1C3)C2` [Example 69], the Ki fell in the range of 10 to 100 nM.

In the case of `CC(C)(Oc1ccc(F)cc1Cl)/C(=N\C#N)NC1C2CC3CC1CC(S(C)(=O)=O)(C3)C2` (stereo not shown) [Example 18, (1E)-2-(2-Chloro-4-fluorophenoxy)-N-cyano-2-methyl-N-[(E)-5-(methylsulfonyl)-2-adamantyl]propanimidamide], the Ki was 10 to 100 nM.

On to `CC(C)(Oc1ccc(Cl)cc1)C(=NC#N)NC1C2CC3CC1CC(O)(C3)C2` (stereo not shown) [Example 8, (1E)-2-(4-Chlorophenoxy)-N′-cyano-N-[(E)-5-hydroxy-2-adamantyl]-2-methylpropanimidamide], for which the Ki is not above 10 nM.

Regarding `CC(C)(Oc1ccc(Cl)cn1)C(=NC#N)NC1C2CC3CC1CC(S(C)(=O)=O)(C3)C2` (stereo not shown) [Example 67, (1E)-2-[(5-chloropyridin-2-yl)oxy]-N-cyano-2-methyl-N-[(E)-5-(methylsulfonyl)adamantan-2-yl]propanimidamide], the Ki is 100 to 1000 nM.

As to `CC(C)(Oc1ccc(Cl)cn1)C(=NC#N)NC1C2CC3CC1CC(S(N)(=O)=O)(C3)C2` (stereo not shown) [Example 68, (1E)-2-[(5-chloropyridin-2-yl)oxy]-N-cyano-2-methyl-N-[(E)-5-sulfamoyladamantan-2-yl]propanimidamide], the Ki was more than 1000 nM.

As for `CC(C)(Oc1ccc(Cl)cc1)C(=NC#N)NC1CCCCCCC1` [Example 41, 2-(4-Chlorophenoxy)-N′-cyano-N-cyclooctyl-2-methylpropanimidamide], the Ki fell in the range of 10 to 100 nM.

As for `CC(C)(Oc1ccc(Cl)cc1F)C(=NC#N)NC1C2CC3CC(C2)CC1C3` (stereo not shown) [Example 62, (1E)-N-[(E)-adamantan-2-yl]-2-(4-chloro-2-fluorophenoxy)-N-cyano-2-methylpropanimidamide], the Ki was 10 to 100 nM.

In the case of `CC(C)(Oc1ccccc1)C(=NC#N)NC12CCC(C(=O)O)(CC1)CC2` [Example 87, 4-{[N-cyano-2-methyl-2-phenoxypropanimidoyl]amino}bicyclo[2.2.2]octane-1-carboxylic acid], the Ki is more than 1000 nM.

`N#C/N=C(\Cc1ccccc1F)N[C@@H]1[C@@H]2C[C@@H]3C[C@H]1C[C@@](O)(C3)C2` [Example 5, (1E)-N′-Cyano-2-(2-fluorophenyl)-N-[(E)-5-hydroxy-2-adamantyl]ethanimidamide]: the Ki was more than 1000 nM.

As for `CC(C)(Oc1ccc(F)cc1F)C(=NC#N)NC1CC2CCC1C2` (stereo not drawn) [Example 56, N-[(exo)-bicyclo[2.2.1]hept-2-yl]-N-cyano-2-(2,4-difluorophenoxy)-2-methylpropanimidamide], the Ki is not above 10 nM.

Regarding `CC(C)(Oc1ccccc1)C(=NC#N)NC1C2CC3CC1CC(O)(C3)C2` (stereo not shown) [Example 49, (1E)-N′-cyano-N-[(E)-5-hydroxyadamantan-2-yl]-2-methyl-2-phenoxypropanimidamide], the Ki lay within 10 to 100 nM.

As for `CC(C)(Oc1ccc(F)cc1F)C(=NC#N)NC1C2CC3CC1CC(O)(C3)C2` (stereo not shown) [Example 51, (1E)-N′-cyano-2-(2,4-difluorophenoxy)-N-[(E)-5-hydroxyadamantan-2-yl]-2-methylpropanimidamide], the Ki was not above 10 nM.

With `CC(C)(Oc1ccccc1)C(=NC#N)NC12CCC(C(F)F)(CC1)C2` [Example 89, N′-cyano-N-[4-(difluoromethyl)bicyclo[2.2.1]hept-1-yl]-2-methyl-2-phenoxypropanimidamide], the Ki is 10 to 100 nM.

Consider `COC(=O)C12CC3CC(C1)C(N/C(=N/C#N)C(C)(C)Oc1ccc(Cl)cc1F)C(C3)C2` (stereo not shown) [Example 63, methyl(E)-4-{[(1E)-2-(4-chloro-2-fluorophenoxy)-N-cyano-2-methylpropanimidoyl]amino}adamantane-1-carboxylate], for which the Ki lay in the range of 10 to 100 nM.

For the compound `CC(C)(Oc1ccc(F)cc1F)C(=NC#N)NC1C2CC3CC1CC(C(N)=O)(C3)C2` (stereo not shown) [Example 70, (E)-4-{[(1E)-N-cyano-2-(2,4-difluorophenoxy)-2-methylpropanimidoyl]amino}adamantane-1-carboxamide], the Ki was not above 10 nM.

With `CC(C)(Oc1ccc(Cl)cc1)/C(=N\C#N)NC12CC3CC(CC1C3)C2` [Example 38, (1E)-2-(4-Chlorophenoxy)-N′-cyano-N-hexahydro-2,5-methanopentalen-3a(1H)-yl-2-methylpropanimidamide], the Ki lay in the range of 10 to 100 nM.

These data come from patent publication US8507493B2 (AbbVie Inc., priority 2009, dated 2013).
